Reference: publication PMC6609034, “Unraveling the role of the secretor antigen in human rotavirus attachment to histo-blood group antigens” (PLoS Pathogens, 2019)

Assays:
VP8* P[8]Wa (lineage I) = target: T1, VP8* P[8]Wa (lineage I) (Rotavirus A, UniProt P11193); experiment: SPR apparent affinity of VP8* for immobilized HBGAs; assay type: binding, human rotavirus; conditions: PAA-biotin glycan immobilized on SA chip, VP8* as analyte, 10°C, ± standard deviation, read-out: Kda (apparent affinity constant)
T1 construct: amino acids 64–224 from the VP4 protein of rotavirus; GST (N); made in house; host or cells: E. coli BL21 (DE3)
T1 sequence (P11193 64-224): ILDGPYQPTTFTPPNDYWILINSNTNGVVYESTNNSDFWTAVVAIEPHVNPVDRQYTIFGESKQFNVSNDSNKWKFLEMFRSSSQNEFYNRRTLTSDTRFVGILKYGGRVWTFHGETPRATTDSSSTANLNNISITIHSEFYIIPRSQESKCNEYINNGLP
Description: (§1) The affinity assays were based on SPR and performed in a Biacore T100 instrument (GE Healthcare). H1 PAA-biotin and LNB PAA-biotin were diluted to a concentration of 1 mg/ml in water and captured with streptavidin present in a SA sensor chip (GE Healthcare). H1 was immobilized in channel 2 (630 RU) of the sensor chip and LNB was immobilized in channel 4 (624 RU). The channels 1 and 3 were used as the reference surfaces for channels 2 and 4, respectively. The immobilization process was performed by conditioning the sensor chip surface with three consecutive 1-minute injections of 1 M NaCl 50 mM NaOH before biotinylated ligands were immobilized at a flow rate of 15 μl/min. The affinity assays of VP8* polypeptides to biotinylated sugars were performed at 10°C using 1X HBS-EP^+ buffer (0.01 M HEPES pH 7.4, 0.15 M NaCl, 3 mM EDTA, 0.005% Surfactant P20), a flow rate of 5 μl/min with 2700 seconds of contact time and a dissociation time of 1800 seconds. The regeneration step consisted in a wash step with 10 mM Glycine-HCl pH 2 for 20 seconds at the same flow rate. The assays were performed with purified VP8* at different concentrations (45; 137; 411; 1,234; 3,703; 11,111; 33,333; 100,000 and 200,000 nM). Each run included three blanks without sample. The affinity data were obtained after analysis of sensorgrams performed with the BIAevaluation 2.0 software (GE Healthcare). Since multivalent oligosaccharides are immobilized on a sensor chip surface, avidity and rebinding effects can take place and apparent affinity constants (Kda) are calculated with this experimental setup. Kda values were obtained from the steady-state kinetics experiment as the ligand concentration needed to achieve a half-maximum binding at equilibrium. The experiments were made in triplicate. Graphical representation of signal/concentration curves were plotted using GraphPad Prism 6 for MacOsX.

[1] = target: T2, VP8* P[8]c (clinical isolate, lineage III) (Rotavirus A, UniProt A0A0S0VKY7); experiment: as above; assay type: binding, human rotavirus; conditions: PAA-biotin glycan immobilized on SA chip, VP8* as analyte, 10°C, ± standard deviation, read-out: Kda (apparent affinity constant)
T2 sequence (A0A0S0VKY7 1-161): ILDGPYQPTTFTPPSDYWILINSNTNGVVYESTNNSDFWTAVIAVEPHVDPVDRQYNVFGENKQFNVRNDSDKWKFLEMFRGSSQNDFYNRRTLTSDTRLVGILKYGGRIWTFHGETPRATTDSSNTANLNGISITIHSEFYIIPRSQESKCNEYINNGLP
Description: as §1

VP8* P[8] = experiment: ELISA-like binding assay to biotinylated HBGAs; design: species or system human rotavirus; conditions: biotinylated PAA glycan 2 μg/ml, VP8* 10 μg/ml
Text: A panel of biotinylated sugar antigens including Le^a, Le^b, Le^c (lacto-N-biose; LNB), H type-1, H type-2 and blood group A and B trisaccharides were purchased from Glyconz (Fig 1 and S1 Table). These glycans are biotinylated neoglyconjugates of a poly[N-(2-hydroxyethyl)acrylamide] (PAA) with a size from 30 to 50 KDa. This forms a flexible polymer ideal for a multivalent presentation of glycans. Immobilized streptavidin F96 black plates (Nunc) were coated with the biotinylated oligosaccharides (2 μg/ml) in milli-Q water and incubated during 1 hour at 37°C. After functionalization the plates were washed once with PBS containing 0.05% of Tween 20 (PBS-T) and the VP8* proteins were added (10 μg/ml) and incubated at 4°C overnight. After three washes with PBS-T, a rabbit polyclonal antibody anti GST (1:1,000) (Abcam) was added and the plates were incubated one hour at 37°C. Then, the plates were washed three times with PBS-T and incubated for 1 h at 37°C with 1:10,000 dilution of horseradish peroxidase (HRP)-conjugated goat anti-rabbit (Abcam). After three washes with PBS-T, the binding was detected using QuantaBlue reagent (ThermoFisher) kit, as recommended by the manufacturer. Fluorescence units were registered by a MultiScan microplate reader. All the binding assays were performed in triplicate.

[2] = system: Wa DLP (double-layered particles); experiment: ELISA-like glycan binding assay of rotavirus particles; design: species or system human rotavirus; conditions: DLP 10 to 0.078 μg/ml
Text: (§2) African green monkey kidney epithelial cells (MA104 cell line; ATTC #CRL-2378.1) were used for the propagation of rotavirus Wa strain that belongs to the globally dominant human genotype G1P[8]. Briefly, ten MA104 cells confluent 150-cm^2 flasks (approximately 1.5 ×10^7 cells/flask) were infected with Wa strain at a multiplicity of infection (MOI) of ≤ 0.1 and processed as previously described. One hundred ml of medium with 1.5x10^8 virus/ml were obtained and the viral particles were concentrated by pelleting at 160,000 × g for 1 h at 4°C in a SW 41 rotor (Beckman). The viral pellet was resuspended in TNC buffer (20 mM Tris-HCl pH 8.0, 100 mM NaCl, 1 mM CaCl2) for triple-layered particles (TLP) or in TNE (20 mM Tris-HCl, pH 8.0, 100 mM NaCl, 1 mM EDTA) for double-layered particles (DLP).
(§3) An ELISA-like binding assay was employed to determine the binding ability of rotavirus TLP and DLP to the H type-1 antigen and to its precursor LNB. Streptavidin plates were coated with the biotinylated oligosaccharides as described above. After washing with PBS-T, two fold serial dilutions of TLPs and DLP were added to the plate (ranging from 10 μg/ml to 0.078 μg/ml). The TLP were always maintained in TNC-T (20 mM Tris, 100 mM NaCl, 1 mM CaCl2, 0.05% Tween 20, pH 7,4) buffer and the binding and washing steps were always carried out in this solution. DLPs assays were carried out in Tris-buffered saline buffer with Tween 20 (TBS-T, 20 mM Tris, 100 mM NaCl, 0.05% Tween 20, pH 7.4). TLP and DLP were incubated in the plate overnight at 4°C. After binding, the plates were washed three times in TNC-T (for TLP) or TBS-T (for DLP) with 0.05% Tween 20 (TNC-T and TBS-T), and a mouse anti-VP6 antibody was added at 1:100 in TNC-T or TBS-T and incubated 1 h at 37°C. The plates were then washed three times with TNC-T or TBS-T, and a HRP-conjugated anti-mouse IgG was added at 1:10.000 and incubated at 37°C for 1 h. […] Fluorescence units were recorded by a MultiScan microplate reader.

[3] = system: Wa TLP (triple-layered particles); experiment: as above; design: species or system human rotavirus; conditions: TLP 10 to 0.078 μg/ml
Text: as §2, §3

SMILES | Kd (VP8* P[8]Wa (lineage I)) [µM] | Kd [1] [µM] | binding (ELISA-like) (VP8* P[8]) | binding of rotavirus particles (ELISA-like) [2] | binding of rotavirus particles (ELISA-like) [3]
CC(=O)NC1C(O)OC(CO)C(O)C1OC1OC(CO)C(O)C(O)C1OC1OC(C)C(O)C(O)C1O (stereo not drawn) [H1, Fuc-α1,2-Gal-β1,3-GlcNAc] | 80.2 | 27.9 | recognized | not | able to bind
CC(=O)NC1C(O)OC(CO)C(O)C1OC1OC(CO)C(O)C(O)C1O (stereo not drawn) [LNB, Gal-β1,3-GlcNAc] | 66.5 | 52.1 | recognize | not | able to bind
